Experimental data reported in publication PMC12216609, “Inhibitors of eIF1A-ribosome interaction unveil uORF-dependent regulation of translation initiation and antitumor and antiviral effects” (The EMBO Journal, 2025).
Several values for one entry are separate records, joined by “and”; a condition that tells them apart may be missing. Equal entries are not always repeated. Where two headings read alike, the source gives them in different places.

How the values were obtained:
[1] = system: uORF-bearing 5'UTR firefly reporters in HEK293T cells; assay: uORF reinitiation / leaky scanning firefly reporters; details: for ff/rl, 46 leaky reporter / ff/rl, 46 reporter / ff/rl, normal reporter: single replicates, not normalized to DMSO
From the text: (M) The reference and uORF-bearing reporters were transfected to HEK293T cells together with RL, which served to normalize translation efficiency. The reporter activities are represented as firefly vs RL; n ≥3 independent biological replicates, error bars represent SEM. *P < 0.05, **P < 0.01, Student t test. (N) Firefly Reporters (J) were transfected to HEK293T cells together with normalizing RL. […] Results are represented as firefly vs. RL normalized to DMSO in each biological replicate; n = 4, error bars represent SEM. *P < 0.05, **P < 0.01, Student t test.
In the first and second, we inserted an out-of-frame uAUG 46 or 95 nucleotides before the main ORF, respectively, followed by a downstream stop codon generating an uORF of 10 amino acids. In these constructs, the translation from the main ORF could be either by reinitiation or leaky scanning. In the third construct, this out of frame uAUG lacks a stop codon, causing initiation from the main ORF to exclusively occur via leaky scanning (Fig. 4L). These reporters were transfected into HEK293T cells together with RL luciferase reporter for normalizing transfection efficiency. […] We next examined these reporters in the presence of 1Ais.

eIF1A without NTT = molecular target: T1, eIF1A without NTT (Homo sapiens, UniProt P47813); assay: Fluorescence binding assay with NTT-truncated eIF1A
T1 construct: His-bdSUMO (cleaved yes); made in house; host or cells: E. coli (BL-21)
T1 sequence (P47813 31-144 limits assumed): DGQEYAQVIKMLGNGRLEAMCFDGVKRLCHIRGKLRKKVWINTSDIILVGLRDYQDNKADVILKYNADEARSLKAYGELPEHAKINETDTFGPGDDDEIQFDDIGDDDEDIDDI

[2] = system: cap-proximal AUG GFP reporter in HEK293T cells; type: cell-based; details: GFP WB densitometry; 20 µM overnight; dmso 0.965946
From the text: Translation from an AUG preceded by a very short 5'UTR (less than 30 nt) is usually inefficient and frequently bypassed, resulting in initiation from a downstream AUG, a phenomenon known as leaky scanning. […] To examine the impact of 1Ais on short 5'UTR initiation, we used a GFP reporter gene containing an AUG located 16 nt downstream from the 5' end followed by a second in-frame downstream AUG (Fig. 1F; Appendix Fig. S1B). Cells were transfected with this GFP reporter gene followed by exposure to DMSO (vehicle) and 1Ais. Initiations from upstream (US) or downstream (DS) AUGs were determined by western blot (WB) with anti-GFP antibodies and the ratio between the US and DS AUG was determined.
For the analysis of translation from very short 5'UTR and Leaky scanning, HEK293T cells were transfected with a GFP (20 ng/well) reporter gene driven by a cap-proximal and downstream AUGs (Elfakess et al, [2011]) together with a luciferase reporter gene (100 ng/well) as normalizing control and treated with 20 µM of 1Ais as described above. GFP levels were determined by Western blot (WB) (GFP antibody, Abcam #ab290) and quantified by densitometry (ImageJ) and normalized to the measured luciferase activity.
HEK293T cells were transfected with the GFP reporter gene schematically shown on the top. The first
AUG is […] from the 5’ end and the downstream AUG is in the same frame. Six hours after transfection, cells were treated with 1Ais. After overnight exposure to 1Ais, GFP expression was analyzed by WB using anti -GFP antibodies.
US/DS ratio was determined by densitometry and represents the long protein expression (upstream AUG, US) vs the […]
biological replicates. (C-D) Analysis of reporter genes mRNA levels after 1Ais treatment.

[3] = system: IRF7 5'UTR firefly luciferase reporter in HEK293T cells; details: for Reference vs IRF7 (Final data, Fig. 1E): 1/Result, relative to DMSO; for LONG (summary - All), normalized to DMSO / Long: Normalized to average DMSO: Long reporter; for LONG (summary - All), normalized to DMSO / SHORT (summary - All), normalized to DMSO: individual replicates, outliers excluded, DMSO = 1; for SHORT (summary - All), normalized to DMSO: Short reporter; for Long: Normalized to average DMSO: data section, GFP-corrected, per experiment; for average ( long vs short ratio): summary - All;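 as to all read-outs here: luciferase signal corrected by a co-transfected GFP reporter for transfection efficiency, read after overnight compound exposure, with Long and Short reporters differing in 5'UTR length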
NSP1 = NSP1 (Severe acute respiratory syndrome coronavirus 2, UniProt P0DTD1)
[4] = 20 µM, includes values excluded as outliers

In the case of `COc1ccc(C=C2CSc3ccc(Cl)cc3C2=O)cc1O` [1Ai-5175], the “effect on uORF / leaky scanning reporters” value ([1]; 20uM (1Ai-5175 at 5uM), overnight) is reported as “inhibit the short-distance reinitiation”, the “normalized to DMSO, 46 leaky, average” value ([1]; 46 leaky reporter, average of biological repeats) is reported as 0.842 and the “normalized to DMSO, 46 leaky, biological repeats” value ([1]; 46 leaky reporter, biological repeats 1-4) is reported as 0.696 and 0.690 and 0.975 and 1.007. For the same compound, the “normalized to DMSO, 46 leaky” value ([1]; 46 leaky reporter, single replicates 1-8 (two dates)) was 0.670 and 0.722 and 0.651 and 0.728 and 1.015 and 0.935 and 0.924 and 1.090, the “normalized to DMSO, -46, average” value ([1]; -46 reporter, average of biological repeats) was 0.583 and the “normalized to DMSO, -46, biological repeats” value ([1]; -46 reporter, biological repeats 1-4) was 0.455 and 0.565 and 0.613 and 0.698. For the same compound, the “normalized to DMSO, -46” value ([1]; -46 reporter, single replicates 1-8 (two dates)) was 0.448 and 0.461 and 0.490 and 0.641 and 0.602 and 0.625 and 0.452 and 0.944, the “ff/rl, 46 leaky reporter” value ([1]; experiment 12.3.24) was 2.64E-02 and 2.84E-02 and 2.56E-02 and 2.87E-02 and the “ff/rl, 46 reporter” value ([1]; experiment 12.3.24) was 9.52E-02 and 9.80E-02 and 1.04E-01 and 1.36E-01. For the same compound, the “ff/rl, normal reporter” value ([1]; experiment 12.3.24) was 3.34E-01 and 1.68E-01 and 2.05E-01 and 1.98E-01, the “ff/rl, 46 leaky reporter” value ([1]; experiment 13.03.24) was 4.57E-03 and 4.21E-03 and 4.16E-03 and 4.91E-03 and the “ff/rl, 46 reporter” value ([1]; experiment 13.03.24) was 1.39E-02 and 1.45E-02 and 1.05E-02 and 2.19E-02. For the same compound, the “ff/rl, normal reporter” value ([1]; experiment 13.03.24) was 4.32E-02 and 3.04E-02 and 3.07E-02 and 3.75E-02, the “reporter activity norm to DMSO, minus46” value ([1]; minus46 reporter, 95nt from uORF to main ORF experiment, Figure 4N source data, replicate experiments, DMSO = 1) was 0.1896 and 0.185 and the “95nt from uORF to main ORF experiment, minus46, average (DMSO = 1)” value ([1]; minus46 reporter, average) was 0.497. For the same compound, the “reporter activity norm to DMSO, minus 95” value ([1]; minus 95 (nt) reporter, 95nt from uORF to main ORF experiment, Figure 4N source data, replicate experiments, DMSO = 1) was 0.3264 and 0.388, the “95nt from uORF to main ORF experiment, minus 95nt, average (DMSO = 1)” value ([1]; minus 95nt reporter, average) was 0.9478 and the “reporter activity norm to DMSO, ref” value ([1]; ref reporter, 95nt from uORF to main ORF experiment, Figure 4N source data, replicate experiments, DMSO = 1) was 0.381 and 0.3727. For the same compound, the “95nt from uORF to main ORF experiment, ref, average (DMSO = 1)” value ([1]; ref reporter, average) was 0.3768, the “normalized to DMSO, refference, average” value ([1]; refference reporter, average of biological repeats) was 0.842 and the “normalized to DMSO, refference, biological repeats” value ([1]; refference reporter, biological repeats 1-4) was 0.886 and 0.712 and 0.917 and 0.851. For the same compound, the “normalized to DMSO, refference” value ([1]; refference reporter, single replicates 1-8 (two dates)) was 1.178 and 0.594 and 0.724 and 0.700 and 1.078 and 0.757 and 0.766 and 0.936, the “normalized to DMSO, single replicates” value ([1]; reporter 46, experiment 12.3.24) was 4.48E-01 and 4.61E-01 and 4.90E-01 and 6.41E-01 and the “normalize to DMSO, average” value ([1]; reporter 46, experiment 12.3.24, DMSO = 1) was 0.51. For the same compound, the “normalized to DMSO, single replicates” value ([1]; reporter 46, experiment 13.3.24) was 6.02E-01 and 6.25E-01 and 4.52E-01 and 9.44E-01, the “normalize to DMSO, average” value ([1]; reporter 46, experiment 13.3.24, DMSO = 1) was 0.6556 and the “normalize to DMSO, average” value ([1]; reporter 46 leaky, experiment 12.3.24, DMSO = 1) was 0.6928. The “normalized to DMSO, single replicates” value ([1]; reporter 46 leaky, experiment 13.3.24) was 1.01E+00 and 9.35E-01 and 9.24E-01 and 1.09E+00, the “normalize to DMSO, average” value ([1]; reporter 46 leaky, experiment 13.3.24, DMSO = 1) was 0.991 and the “normalized to DMSO, single replicates” value ([1]; reporter normal (refference), experiment 12.3.24) was 1.18E+00 and 5.94E-01 and 7.24E-01 and 7.00E-01. For the same compound, the “normalized to DMSO, single replicates” value ([1]; reporter normal (refference), experiment 13.3.24) was 1.08E+00 and 7.57E-01 and 7.66E-01 and 9.36E-01, the “normalize to DMSO, average” value ([1]; reporter refference, experiment 12.3.24, DMSO = 1) was 0.7988 and the “normalize to DMSO, average” value ([1]; reporter refference, experiment 13.3.24, DMSO = 1) was 0.8842. For the same compound, the “inhibitory effect with extended (long) reinitiation distance” value ([1]; uORF to main ORF distance extended by 49 nt) was “lost”, the “binding to NTT-truncated eIF1A” value (eIF1A without NTT) was “no binding” and the “NTT truncation IC50” value (eIF1A without NTT; eIF1A without NTT) was “No binding”. For the same compound, the “IC50 concentration (µM), NTT truncation” value (eIF1A without NTT; summary table, fluorescence binding assay) was “No binding”, the “US/DS ratio, average” value [2] was 1.243 and the “Reference vs IRF7 (Final data, Fig. 1E)” value ([3]; 20 µM) was 2.369. The “LONG (summary - All), normalized to DMSO” value ([3]; 5 µM) was 0.41 and 0.69 and 0.67, the “SHORT (summary - All), normalized to DMSO” value (“SHORT … normalized to DMSO” for short) ([3]; 5 µM) was 1.04 and 2.35 and 0.82 and the “Long: Normalized to average DMSO” value ([3]; 5 µM) was 0.4067 and 0.6939 and 0.6743. The “average ( long vs short ratio)” value ([3]; 5 µM) was 0.422.

`Oc1cc(Cl)ccc1Oc1ccc(Cl)cc1Cl` [1Ai-6248] was tested, and the “GFP reporter ratio nsp1/gfp, avg” value (NSP1) was 0.4361, the “GFP reporter ratio nsp1/gfp, rep 1” value (NSP1) was 0.4445 and the “GFP reporter ratio nsp1/gfp, rep 2” value (NSP1) was 0.4277. The “gfp signal, mean of duplicate wells” value (NSP1) was 2505 and 4211.5, the “nsp1 signal, mean of duplicate wells” value (NSP1) was 1071.5 and 1872 and the “ratio (nsp1/gfp)” value (NSP1) was 0.428 and 0.444. For the same compound, the “US/DS ratio, average” value [2] was 1.042, the “Reference vs IRF7 (Final data, Fig. 1E)” value ([3]; 20 µM) was 2.307 and the “LONG (summary - All), normalized to DMSO” value ([3]; 5 µM) was 0.82 and 0.51 and 0.33 and 0.43. For the same compound, the “SHORT … normalized to DMSO” value ([3]; 5 µM) was 0.71 and 0.90 and 0.20 and the “average ( long vs short ratio)” value ([3]; 5 µM) was 0.861.

In the case of `O=S(=O)(c1ccccc1)N1CCN(C2c3ccccc3-c3ccccc32)CC1` [1Ai-9025], the “US/DS ratio, average” value [2] is reported as 0.7517, the “Reference vs IRF7 (Final data, Fig. 1E)” value ([3]; 20 µM) is reported as 1.762 and the “LONG (summary - All), normalized to DMSO” value ([3]; 20 µM) is reported as 0.59 and 0.94 and 0.66 and 0.50. For the same compound, the “SHORT … normalized to DMSO” value ([3]; 20 µM) was 1.30 and 0.73 and 1.51, the “Long: Normalized to average DMSO” value [3, 4] was 0.5873 and 0.9413 and 0.6597 and 0.4965 and the “average ( long vs short ratio)” value ([3]; 20 µM) was 0.568.

In the case of `O=C(C=Cc1ccc(Cl)s1)Nc1cccc2ncccc12` [1Ai-4860], the “GFP reporter ratio nsp1/gfp, avg” value (NSP1) is reported as 0.4044, the “GFP reporter ratio nsp1/gfp, rep 1” value (NSP1) is reported as 0.428 and the “GFP reporter ratio nsp1/gfp, rep 2” value (NSP1) is reported as 0.3807. The “gfp signal, mean of duplicate wells” value (NSP1) was 2781.5 and 4263, the “nsp1 signal, mean of duplicate wells” value (NSP1) was 1059 and 1824.5 and the “ratio (nsp1/gfp)” value (NSP1) was 0.381 and 0.428. The “US/DS ratio, average” value [2] was 1.03, the “Reference vs IRF7 (Final data, Fig. 1E)” value ([3]; 20 µM) was 1.848 and the “LONG (summary - All), normalized to DMSO” value ([3]; 20 µM) was 0.47 and 0.69 and 0.42 and 0.61. For the same compound, the “SHORT … normalized to DMSO” value ([3]; 20 µM) was 0.84 and 1.62 and 0.77, the “Long: Normalized to average DMSO” value [3, 4] was 0.471 and 0.6925 and 0.4245 and 0.6135 and the “average ( long vs short ratio)” value ([3]; 20 µM) was 0.541.
